Laboratory results reported in publication PMC8232266, “Lanolin-Based Synthetic Membranes for Transdermal Permeation and Penetration Drug Delivery Assays” (Membranes, 2021).
Entries after “also recorded” stand apart in the source; their conditions may differ. Read-outs that look alike come from different tables or passages of the source. Marks after values point to notes of the source that are not given here.

Experiments:
[1] = Infinite-dose kinetic permeation assay, vertical Franz diffusion cells, Nuclepore membrane; assay type: in vitro ADME; details: NP, DS 3% / LIDO 2% in PG; for J (flux): Higuchi model
Source text: (§1) Lastly, the entire system was clamped shut.

[2] = Infinite-dose kinetic permeation assay, vertical Franz diffusion cells, 5% SEL lanolin membrane; assay type: in vitro ADME
Method: (§2) For the preparation of the membranes, the procedure described by Pullmannová, et al. was followed. […] Next, 300 µL of the lipid solution was spread onto the pre-weighed NP membranes (≈15 mg lanolin) in a three-step process. The solvent was then evaporated under a stream of N2. The lipid membranes prepared were vacuum-dried over […] in a desiccator and were stored in a fridge at 5 °C for 24 h. Prior to use, the lanolin-based membranes were then heated to 75 °C, equilibrated for 10 min, and then cooled down slowly (~3 h) to 32 °C. The last part of the cooling-heating cycle was incubation for 24 h at 32 °C. Using a skin pHmeter (Sebumeter pH 900, Courage + Khazaka, Cologne, Germany), the pH of the membranes was determined.
as §1

[3] = Infinite-dose kinetic permeation assay, vertical Franz diffusion cells, 5% WEL lanolin membrane; assay type: in vitro ADME; details: DS 3% / LIDO 2% in PG; for J (flux): Ord 0 model
Method: as §2, §1

[4] = Finite-dose penetration test, Franz diffusion cells, Nuclepore-SEL membrane; assay type: in vitro ADME; details: finite dose 20 µL, 24 h, Figure 1
[5] = infinite dose

Kinetics of Release (best-fit model) ([2]; DS 3% / LIDO 2% in PG)	J (flux) ([2]; Ord 0 model, DS 3% in PG)	Kinetics of Release (best-fit model) ([5]; SKIN, DS 3% / LIDO 2% in PG)	J (flux) ([5]; SKIN, Ord 0 model, DS 3% / LIDO 2% in PG) [µg/cm^2/h]	permeability (percentage permeated through the skin) ([5]; pig skin, at 30 h) [%]	SMILES	Kinetics of Release (best-fit model) [1]	J (flux) [1]	Kinetics of Release (best-fit model) ([3]; listed as DS)	J (flux) [3] [µg/cm^2/h]	permeation through Nuclepore-SEL membrane compared with skin [4]	J (flux) ([2]; Higuchi model, LIDO 2% in PG)
Ord 0	30.40 * µg/cm^2/h	Ord 0	3.94	0.83 ± 0.42	O=C(O)Cc1ccccc1Nc1c(Cl)cccc1Cl [Diclofenac Sodium, Diclofenac sodium]	Higuchi	2307.12 * µg/cm^2/h^½	zero-order kinetics; also recorded: Ord 0	6.18	insignificant difference compared with the skin	
					CCN(CC)CC(=O)Nc1c(C)cccc1C [Lidocaine, lidocaine]	Higuchi	1360.27 * µg/cm^2/h^½		4.85		343.05 * µg/cm^2/h^½
